Reference: ChEMBL document CHEMBL5303573, “Mapping human microbiome drug metabolism by gut bacteria and their genes” (Nature, 2019)

Experiment: The drug is tested on Edwardsiella tarda strain: ATCC23685 for biotransformation. The drug concentrations were measured before and after a 12-h incubation by liquid-chromatography-coupled mass spectrometry (LC–MS)
Conditions: 2 µM

| SMILES | Bacterial Biotransformation |
| --- | --- |
| COc1cc2c(c(OC)c1OC)-c1ccc(OC)c(=O)cc1[C@@H](NC(C)=O)CC2 [COLCHICINE] | Compound NOT metabolized |
| CC(C)C[C@H]1C(=O)N2CCC[C@H]2[C@]2(O)O[C@](NC(=O)[C@@H]3C=C4c5cccc6[nH]c(Br)c(c56)C[C@H]4N(C)C3)(C(C)C)C(=O)N12.CS(=O)(=O)O [BROMOCRIPTINE MESYLATE] | Compound metabolized |

Conditions: limosilactobacillus reuteri cf48-3a, 12 h, 2 µM
Description: The drug is tested on Lactobacillus reuteri CF48-3A strain: BEI HM-102 for biotransformation. The drug concentrations were measured before and after a 12-h incubation by liquid-chromatography-coupled mass spectrometry (LC–MS)

| SMILES | Bacterial Biotransformation |
| --- | --- |
| COc1cc2c(c(OC)c1OC)-c1ccc(OC)c(=O)cc1[C@@H](NC(C)=O)CC2 [COLCHICINE] | Compound NOT metabolized |
| CC(C)C[C@H]1C(=O)N2CCC[C@H]2[C@]2(O)O[C@](NC(=O)[C@@H]3C=C4c5cccc6[nH]c(Br)c(c56)C[C@H]4N(C)C3)(C(C)C)C(=O)N12.CS(=O)(=O)O [BROMOCRIPTINE MESYLATE] | Compound metabolized |

Experiment: The drug is tested on Alistipes indistinctus strain: DSM22520 for biotransformation. The drug concentrations were measured before and after a 12-h incubation by liquid-chromatography-coupled mass spectrometry (LC–MS)
Conditions: 2 µM

| SMILES | Bacterial Biotransformation |
| --- | --- |
| COc1cc2c(c(OC)c1OC)-c1ccc(OC)c(=O)cc1[C@@H](NC(C)=O)CC2 [COLCHICINE] | Compound NOT metabolized |
| CC(C)C[C@H]1C(=O)N2CCC[C@H]2[C@]2(O)O[C@](NC(=O)[C@@H]3C=C4c5cccc6[nH]c(Br)c(c56)C[C@H]4N(C)C3)(C(C)C)C(=O)N12.CS(=O)(=O)O [BROMOCRIPTINE MESYLATE] | Compound metabolized |

Experiment: The drug is tested on Anaerococcus hydrogenalis strain: DSM7454 for biotransformation. The drug concentrations were measured before and after a 12-h incubation by liquid-chromatography-coupled mass spectrometry (LC–MS)
Conditions: 2 µM

| SMILES | Bacterial Biotransformation |
| --- | --- |
| COc1cc2c(c(OC)c1OC)-c1ccc(OC)c(=O)cc1[C@@H](NC(C)=O)CC2 [COLCHICINE] | Compound NOT metabolized |
| CC(C)C[C@H]1C(=O)N2CCC[C@H]2[C@]2(O)O[C@](NC(=O)[C@@H]3C=C4c5cccc6[nH]c(Br)c(c56)C[C@H]4N(C)C3)(C(C)C)C(=O)N12.CS(=O)(=O)O [BROMOCRIPTINE MESYLATE] | Compound metabolized |

Experiment: The drug is tested on Bacteroides ovatus strain: ATCC8483 for biotransformation. The drug concentrations were measured before and after a 12-h incubation by liquid-chromatography-coupled mass spectrometry (LC–MS)
Conditions: 2 µM

| SMILES | Bacterial Biotransformation |
| --- | --- |
| COc1cc2c(c(OC)c1OC)-c1ccc(OC)c(=O)cc1[C@@H](NC(C)=O)CC2 [COLCHICINE] | Compound NOT metabolized |
| CC(C)C[C@H]1C(=O)N2CCC[C@H]2[C@]2(O)O[C@](NC(=O)[C@@H]3C=C4c5cccc6[nH]c(Br)c(c56)C[C@H]4N(C)C3)(C(C)C)C(=O)N12.CS(=O)(=O)O [BROMOCRIPTINE MESYLATE] | Compound metabolized |

Experiment: The drug is tested on Bacteroides pectinophilus strain: ATCC43243 for biotransformation. The drug concentrations were measured before and after a 12-h incubation by liquid-chromatography-coupled mass spectrometry (LC–MS)
Conditions: 2 µM

| SMILES | Bacterial Biotransformation |
| --- | --- |
| CC(C)C[C@H]1C(=O)N2CCC[C@H]2[C@]2(O)O[C@](NC(=O)[C@@H]3C=C4c5cccc6[nH]c(Br)c(c56)C[C@H]4N(C)C3)(C(C)C)C(=O)N12.CS(=O)(=O)O [BROMOCRIPTINE MESYLATE] | Compound metabolized |

Experiment: The drug is tested on Ruminococcus torques strain: ATCC27756 for biotransformation. The drug concentrations were measured before and after a 12-h incubation by liquid-chromatography-coupled mass spectrometry (LC–MS)
Assay type: ADME
Parameters: dose 2 uM, timepoint 0 vs 12 hours
Conditions: 2 µM

| SMILES | Bacterial Biotransformation |
| --- | --- |
| COc1cc2c(c(OC)c1OC)-c1ccc(OC)c(=O)cc1[C@@H](NC(C)=O)CC2 [COLCHICINE] | Compound NOT metabolized |
| CC(C)C[C@H]1C(=O)N2CCC[C@H]2[C@]2(O)O[C@](NC(=O)[C@@H]3C=C4c5cccc6[nH]c(Br)c(c56)C[C@H]4N(C)C3)(C(C)C)C(=O)N12.CS(=O)(=O)O [BROMOCRIPTINE MESYLATE] | Compound metabolized |

Experiment: The drug is tested on Parabacteroides merdae strain: ATCC43184 for biotransformation. The drug concentrations were measured before and after a 12-h incubation by liquid-chromatography-coupled mass spectrometry (LC–MS)
Conditions: 2 µM

| SMILES | Bacterial Biotransformation |
| --- | --- |
| COc1cc2c(c(OC)c1OC)-c1ccc(OC)c(=O)cc1[C@@H](NC(C)=O)CC2 [COLCHICINE] | Compound NOT metabolized |
| CC(C)C[C@H]1C(=O)N2CCC[C@H]2[C@]2(O)O[C@](NC(=O)[C@@H]3C=C4c5cccc6[nH]c(Br)c(c56)C[C@H]4N(C)C3)(C(C)C)C(=O)N12.CS(=O)(=O)O [BROMOCRIPTINE MESYLATE] | Compound metabolized |

Conditions: bacteroides fragilis, 12 h, 2 µM
Description: The drug is tested on Bacteroides fragilis strain: NCTC 9343 for biotransformation. The drug concentrations were measured before and after a 12-h incubation by liquid-chromatography-coupled mass spectrometry (LC–MS)

| SMILES | Bacterial Biotransformation |
| --- | --- |
| COc1cc2c(c(OC)c1OC)-c1ccc(OC)c(=O)cc1[C@@H](NC(C)=O)CC2 [COLCHICINE] | Compound metabolized |
| CC(C)C[C@H]1C(=O)N2CCC[C@H]2[C@]2(O)O[C@](NC(=O)[C@@H]3C=C4c5cccc6[nH]c(Br)c(c56)C[C@H]4N(C)C3)(C(C)C)C(=O)N12.CS(=O)(=O)O [BROMOCRIPTINE MESYLATE] | Compound metabolized |

Experiment: The drug is tested on Bacteroides uniformis strain: ATCC8492 for biotransformation. The drug concentrations were measured before and after a 12-h incubation by liquid-chromatography-coupled mass spectrometry (LC–MS)
Conditions: 2 µM

| SMILES | Bacterial Biotransformation |
| --- | --- |
| COc1cc2c(c(OC)c1OC)-c1ccc(OC)c(=O)cc1[C@@H](NC(C)=O)CC2 [COLCHICINE] | Compound metabolized |
| CC(C)C[C@H]1C(=O)N2CCC[C@H]2[C@]2(O)O[C@](NC(=O)[C@@H]3C=C4c5cccc6[nH]c(Br)c(c56)C[C@H]4N(C)C3)(C(C)C)C(=O)N12.CS(=O)(=O)O [BROMOCRIPTINE MESYLATE] | Compound metabolized |

Experiment: The drug is tested on Clostridium ramosum strain: DSM1402 for biotransformation. The drug concentrations were measured before and after a 12-h incubation by liquid-chromatography-coupled mass spectrometry (LC–MS)
Conditions: thomasclavelia ramosa, 2 µM

| SMILES | Bacterial Biotransformation |
| --- | --- |
| COc1cc2c(c(OC)c1OC)-c1ccc(OC)c(=O)cc1[C@@H](NC(C)=O)CC2 [COLCHICINE] | Compound NOT metabolized |
| CC(C)C[C@H]1C(=O)N2CCC[C@H]2[C@]2(O)O[C@](NC(=O)[C@@H]3C=C4c5cccc6[nH]c(Br)c(c56)C[C@H]4N(C)C3)(C(C)C)C(=O)N12.CS(=O)(=O)O [BROMOCRIPTINE MESYLATE] | Compound metabolized |

Experiment: The drug is tested on Enterococcus faecalis strain: V583 for biotransformation. The drug concentrations were measured before and after a 12-h incubation by liquid-chromatography-coupled mass spectrometry (LC–MS)
Conditions: 2 µM

| SMILES | Bacterial Biotransformation |
| --- | --- |
| COc1cc2c(c(OC)c1OC)-c1ccc(OC)c(=O)cc1[C@@H](NC(C)=O)CC2 [COLCHICINE] | Compound NOT metabolized |

Conditions: parabacteroides johnsonii, 12 h, 2 µM
Description: The drug is tested on Parabacteroides johnsonii strain: DSM18315 for biotransformation. The drug concentrations were measured before and after a 12-h incubation by liquid-chromatography-coupled mass spectrometry (LC–MS)

| SMILES | Bacterial Biotransformation |
| --- | --- |
| COc1cc2c(c(OC)c1OC)-c1ccc(OC)c(=O)cc1[C@@H](NC(C)=O)CC2 [COLCHICINE] | Compound metabolized |
| CC(C)C[C@H]1C(=O)N2CCC[C@H]2[C@]2(O)O[C@](NC(=O)[C@@H]3C=C4c5cccc6[nH]c(Br)c(c56)C[C@H]4N(C)C3)(C(C)C)C(=O)N12.CS(=O)(=O)O [BROMOCRIPTINE MESYLATE] | Compound metabolized |

Experiment: The drug is tested on Providencia stuartii strain: ATCC25827 for biotransformation. The drug concentrations were measured before and after a 12-h incubation by liquid-chromatography-coupled mass spectrometry (LC–MS)
Conditions: 2 µM

| SMILES | Bacterial Biotransformation |
| --- | --- |
| COc1cc2c(c(OC)c1OC)-c1ccc(OC)c(=O)cc1[C@@H](NC(C)=O)CC2 [COLCHICINE] | Compound NOT metabolized |
| CC(C)C[C@H]1C(=O)N2CCC[C@H]2[C@]2(O)O[C@](NC(=O)[C@@H]3C=C4c5cccc6[nH]c(Br)c(c56)C[C@H]4N(C)C3)(C(C)C)C(=O)N12.CS(=O)(=O)O [BROMOCRIPTINE MESYLATE] | Compound metabolized |

Experiment: The drug is tested on Eubacterium rectale strain: ATCC33656 for biotransformation. The drug concentrations were measured before and after a 12-h incubation by liquid-chromatography-coupled mass spectrometry (LC–MS)
Conditions: agathobacter rectalis, 2 µM

| SMILES | Bacterial Biotransformation |
| --- | --- |
| COc1cc2c(c(OC)c1OC)-c1ccc(OC)c(=O)cc1[C@@H](NC(C)=O)CC2 [COLCHICINE] | Compound NOT metabolized |
| CC(C)C[C@H]1C(=O)N2CCC[C@H]2[C@]2(O)O[C@](NC(=O)[C@@H]3C=C4c5cccc6[nH]c(Br)c(c56)C[C@H]4N(C)C3)(C(C)C)C(=O)N12.CS(=O)(=O)O [BROMOCRIPTINE MESYLATE] | Compound metabolized |

Experiment: The drug is tested on Anaerotruncus colihominis strain: DSM17241 for biotransformation. The drug concentrations were measured before and after a 12-h incubation by liquid-chromatography-coupled mass spectrometry (LC–MS)
Conditions: 2 µM

| SMILES | Bacterial Biotransformation |
| --- | --- |
| COc1cc2c(c(OC)c1OC)-c1ccc(OC)c(=O)cc1[C@@H](NC(C)=O)CC2 [COLCHICINE] | Compound NOT metabolized |
| CC(C)C[C@H]1C(=O)N2CCC[C@H]2[C@]2(O)O[C@](NC(=O)[C@@H]3C=C4c5cccc6[nH]c(Br)c(c56)C[C@H]4N(C)C3)(C(C)C)C(=O)N12.CS(=O)(=O)O [BROMOCRIPTINE MESYLATE] | Compound metabolized |

Experiment: The drug is tested on Ruminococcus gnavus strain: ATCC29149 for biotransformation. The drug concentrations were measured before and after a 12-h incubation by liquid-chromatography-coupled mass spectrometry (LC–MS)
Conditions: mediterraneibacter gnavus, 2 µM

| SMILES | Bacterial Biotransformation |
| --- | --- |
| CC(C)C[C@H]1C(=O)N2CCC[C@H]2[C@]2(O)O[C@](NC(=O)[C@@H]3C=C4c5cccc6[nH]c(Br)c(c56)C[C@H]4N(C)C3)(C(C)C)C(=O)N12.CS(=O)(=O)O [BROMOCRIPTINE MESYLATE] | Compound metabolized |

Experiment: The drug is tested on Bacteroides coprophilus strain: DSM18228 for biotransformation. The drug concentrations were measured before and after a 12-h incubation by liquid-chromatography-coupled mass spectrometry (LC–MS)
Conditions: 2 µM

| SMILES | Bacterial Biotransformation |
| --- | --- |
| COc1cc2c(c(OC)c1OC)-c1ccc(OC)c(=O)cc1[C@@H](NC(C)=O)CC2 [COLCHICINE] | Compound NOT metabolized |
| CC(C)C[C@H]1C(=O)N2CCC[C@H]2[C@]2(O)O[C@](NC(=O)[C@@H]3C=C4c5cccc6[nH]c(Br)c(c56)C[C@H]4N(C)C3)(C(C)C)C(=O)N12.CS(=O)(=O)O [BROMOCRIPTINE MESYLATE] | Compound metabolized |

Conditions: bifidobacterium adolescentis, 12 h, 2 µM
Description: The drug is tested on Bifidobacterium adolescentis strain: ATCC 15703 for biotransformation. The drug concentrations were measured before and after a 12-h incubation by liquid-chromatography-coupled mass spectrometry (LC–MS)

| SMILES | Bacterial Biotransformation |
| --- | --- |
| COc1cc2c(c(OC)c1OC)-c1ccc(OC)c(=O)cc1[C@@H](NC(C)=O)CC2 [COLCHICINE] | Compound NOT metabolized |
| CC(C)C[C@H]1C(=O)N2CCC[C@H]2[C@]2(O)O[C@](NC(=O)[C@@H]3C=C4c5cccc6[nH]c(Br)c(c56)C[C@H]4N(C)C3)(C(C)C)C(=O)N12.CS(=O)(=O)O [BROMOCRIPTINE MESYLATE] | Compound metabolized |

Experiment: The drug is tested on Bacteroides dorei strain: DSM17855 for biotransformation. The drug concentrations were measured before and after a 12-h incubation by liquid-chromatography-coupled mass spectrometry (LC–MS)
Conditions: phocaeicola dorei, 2 µM

| SMILES | Bacterial Biotransformation |
| --- | --- |
| COc1cc2c(c(OC)c1OC)-c1ccc(OC)c(=O)cc1[C@@H](NC(C)=O)CC2 [COLCHICINE] | Compound metabolized |
| CC(C)C[C@H]1C(=O)N2CCC[C@H]2[C@]2(O)O[C@](NC(=O)[C@@H]3C=C4c5cccc6[nH]c(Br)c(c56)C[C@H]4N(C)C3)(C(C)C)C(=O)N12.CS(=O)(=O)O [BROMOCRIPTINE MESYLATE] | Compound metabolized |
